The target in assay [1] is full-length human recombinant BTK (Homo sapiens (Human), UniProt Q06187). Description: Inhibition of Btk enzymatic activity (biochemical enzyme assay, Caliper). To be noted: 6.4 nM enzyme solution, 164 μM ATP solution, 30° C., 60 minutes. As for the experimental part:
The inhibitory activity of the present compounds against Btk was assessed in a biochemical enzyme assay. […] The assay plates were prepared by addition of 50 nl per well of compound solution in 90% DMSO. […] Kinase reactions were analyzed on a Caliper LC3000 workstation by separating phosphorylated and unphosphorylated peptides and kinase activities were calculated from the amounts of newly formed phospho-peptide.

Assay [2] addresses Btk (Rattus norvegicus, UniProt Q5S255). As to the kind of experiment: Inhibition of Btk activity in blood (in vitro B cell activation assay, CD86, rat whole blood). Format: cell-based. To be noted: Lewis rat whole blood diluted to 50%, anti-rat IgM + rat IL-4, 24 hours, CD86 on CD45RA positive B cells. As for the experimental part: Alternatively, the inhibitory activity of the present compounds in blood was assessed in the following in vitro B cell activation assay. Whole blood was collected from the abdominal aorta of anaesthetized adult male Lewis rats and was anticoagulated with 100 U/ml sodium heparin. Blood was then diluted to 50% with high glucose DMEM (Amimed) supplemented with […] penicillin, […], 2 mM L-glutamin, 50 mg/ml dextran 40 and 5% FCS (Fetaclone I, Gibco). Then, 190 μl prediluted blood was mixed in 96 well U-bottomed microtiter plates (Nunc) with 10 μl of serial dilutions of test compounds in DMSO. […] Activation of B cells was measured by flow cytometry after staining for the B cell subset with PE-Cy5-labeled anti-ratCD45RA (Beckton-Dickinson) and for the activation marker CD86 (PE-labeled anti-rat CD86 (Beckton-Dickinson). All staining procedures were performed at RT for 30 min in the dark in 96-deep well V-bottomed microtiter plates (Corning) with BD Lysing Solution (Beckton-Dickinson).
Cytometric data was acquired on a FACScalibur flow cytometer (BD Biosciences) and the subpopulation of lymphocytes were gated according to size and granularity and further analyzed for expression of CD45RA and the activation markers. Data for the inhibition of B cell activation were calculated from the percentage of cells positively stained for activation markers within the CD45RA positive population.

full-length human recombinant BTK, sequence (Q06187 whole entry): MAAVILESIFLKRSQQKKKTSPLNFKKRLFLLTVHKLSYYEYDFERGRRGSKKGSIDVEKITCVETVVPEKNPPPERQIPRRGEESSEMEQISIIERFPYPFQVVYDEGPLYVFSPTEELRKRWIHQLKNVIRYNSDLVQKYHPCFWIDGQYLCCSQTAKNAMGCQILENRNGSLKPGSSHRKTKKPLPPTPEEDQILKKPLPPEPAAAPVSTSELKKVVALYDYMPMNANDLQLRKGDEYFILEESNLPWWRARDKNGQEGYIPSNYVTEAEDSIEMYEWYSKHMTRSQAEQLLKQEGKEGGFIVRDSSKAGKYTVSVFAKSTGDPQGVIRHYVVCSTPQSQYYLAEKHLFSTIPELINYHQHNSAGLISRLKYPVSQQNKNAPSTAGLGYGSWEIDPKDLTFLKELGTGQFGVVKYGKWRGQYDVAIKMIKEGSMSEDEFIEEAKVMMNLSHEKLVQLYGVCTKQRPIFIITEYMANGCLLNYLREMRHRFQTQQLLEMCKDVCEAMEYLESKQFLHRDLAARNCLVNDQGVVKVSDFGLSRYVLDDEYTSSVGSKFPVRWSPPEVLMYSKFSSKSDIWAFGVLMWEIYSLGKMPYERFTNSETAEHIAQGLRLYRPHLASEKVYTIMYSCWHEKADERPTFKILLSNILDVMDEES
Btk, sequence (Q5S255 1-660): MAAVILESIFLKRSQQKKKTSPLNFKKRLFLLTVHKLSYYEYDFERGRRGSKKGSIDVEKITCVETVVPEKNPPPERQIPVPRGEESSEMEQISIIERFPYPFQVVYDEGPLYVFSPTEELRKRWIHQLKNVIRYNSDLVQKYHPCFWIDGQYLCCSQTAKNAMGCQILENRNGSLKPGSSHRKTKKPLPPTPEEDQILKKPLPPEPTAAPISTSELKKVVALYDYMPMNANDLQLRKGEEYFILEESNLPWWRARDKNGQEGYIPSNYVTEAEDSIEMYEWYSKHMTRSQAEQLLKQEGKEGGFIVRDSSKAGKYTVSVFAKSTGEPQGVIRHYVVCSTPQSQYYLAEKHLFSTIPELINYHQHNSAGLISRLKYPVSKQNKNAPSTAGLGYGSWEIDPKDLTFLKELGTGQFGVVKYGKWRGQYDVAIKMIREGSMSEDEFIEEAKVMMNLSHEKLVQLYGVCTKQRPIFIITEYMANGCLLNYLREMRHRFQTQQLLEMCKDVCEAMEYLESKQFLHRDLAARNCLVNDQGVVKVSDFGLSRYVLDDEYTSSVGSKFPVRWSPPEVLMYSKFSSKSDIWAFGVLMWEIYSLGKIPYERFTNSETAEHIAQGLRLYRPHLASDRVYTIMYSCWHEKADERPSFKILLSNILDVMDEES

Consider `C=CC(=O)N(C)CCOc1c(N)ncnc1-c1cc(F)cc(N2CCc3cc(C4CC4)ccc3C2=O)c1CO` [Example 25, N-(2-((4-Amino-6-(3-(6-cyclopropyl-1-oxo-3,4-dihydroisoquinolin-2(1H)-yl)-5-fluoro-2-(hydroxymethyl)phenyl)pyrimidin-5-yl)oxy)ethyl)-N-methylacrylamide], for which the values for the concentration for half-maximal inhibition (IC50) in assay [1] and in assay [2] were 1 nM and 65 nM, respectively.
As for `C#CC(=O)N1CC(Oc2c(N)ncnc2-c2cc(F)cc(NC(=O)c3ccc(C4CC4)cc3F)c2C)C1` [Example 3, N-(3-(6-Amino-5-((1-propioloylazetidin-3-yl)oxy)pyrimidin-4-yl)-5-fluoro-2-methylphenyl)-4-cyclopropyl-2-fluorobenzamide], the half-inhibitory concentration (IC50) in assay [1] was found to be 1 nM; in assay [2], 124 nM.
The matching figures for `CC#CC(=O)N1C[C@H](F)C[C@H]1COc1c(N)ncnc1-c1cc(F)cc(NC(=O)c2ccc(C3CC3)cc2F)c1C` [Example 32, N-(3-(6-Amino-5-(((2S,4R)-1-(but-2-ynoyl)-4-fluoropyrrolidin-2-yl)methoxy)pyrimidin-4-yl)-5-fluoro-2-methylphenyl)-4-cyclopropyl-2-fluorobenzamide]: 4 nM and 55 nM.
As for `C/C=C/C(=O)N1CC(Oc2c(N)ncnc2-c2cc(F)cc(NC(=O)c3ccc(C4CC4)cc3F)c2C)C1` [Example 2, (E)-N-(3-(6-Amino-5-((1-(but-2-enoyl)azetidin-3-yl)oxy)pyrimidin-4-yl)-5-fluoro-2-methylphenyl)-4-cyclopropyl-2-fluorobenzamide], the values for the IC50 in assay [1] and in assay [2] were 38 nM and 1110 nM, respectively.
As to `Cc1c(NC(=O)c2ccc(C3CC3)cc2F)cc(F)cc1-c1ncnc(N)c1OCCN(C)C(=O)C1CO1` (centres unmarked) [Example 11, N-(2-((4-Amino-6-(3-(4-cyclopropyl-2-fluorobenzamido)-5-fluoro-2-methylphenyl)pyrimidin-5-yl)oxy)ethyl)-N-methyloxirane-2-carboxamide], the figures for the IC50 in assay [1] and in assay [2] were 10 nM and 323 nM, respectively.
With `CC#CC(=O)N1C[C@H](OC)C[C@H]1COc1c(N)ncnc1-c1cc(F)cc(NC(=O)c2ccc(C3CC3)cc2F)c1C` [Example 27, N-(3-(6-Amino-5-(((2S,4R)-1-(but-2-ynoyl)-4-methoxypyrrolidin-2-yl)methoxy)pyrimidin-4-yl)-5-fluoro-2-methylphenyl)-4-cyclopropyl-2-fluorobenzamide], the concentration for half-maximal inhibition (IC50) in assay [1] was 3 nM; in assay [2] it was 76 nM.
Regarding `C=CC(=O)N(CCF)CCOc1c(N)ncnc1-c1cc(F)cc(NC(=O)c2ccc(C3CC3)cc2F)c1C` [Example 15, N-(3-(6-Amino-5-(2-(N-(2-fluoroethyl)acrylamido)ethoxy)pyrimidin-4-yl)-5-fluoro-2-methylphenyl)-4-cyclopropyl-2-fluorobenzamide], the values for the half-maximal inhibitory concentration (IC50) in assay [1] and in assay [2] were 1 nM and 29 nM, respectively.
As for `C=CC(=O)N(C)[C@@H](C)COc1c(N)ncnc1-c1cc(F)cc(NC(=O)c2ccc(C3CC3)cc2F)c1C` [Example 19, (S)—N-(3-(6-Amino-5-(2-(N-methylacrylamido)propoxy)pyrimidin-4-yl)-5-fluoro-2-methylphenyl)-4-cyclopropyl-2-fluorobenzamide], the half-maximal inhibitory concentration (IC50) is 16 nM in assay [1] and 136 nM in assay [2].
Take `C=CC(=O)N1CC[C@H]1COc1c(N)ncnc1-c1cc(F)cc(N2CCc3cc(C4CC4)ccc3C2=O)c1CO` [Example 35, (S)-2-(3-(5-((1-Acryloylazetidin-2-yl)methoxy)-6-aminopyrimidin-4-yl)-5-fluoro-2-(hydroxymethyl)phenyl)-6-cyclopropyl-3,4-dihydroisoquinolin-1(2H)-one]: the IC50 was determined as 2 nM in assay [1] and 72 nM in assay [2].
On to `C=CC(=O)N1CCC[C@@H](COc2c(N)ncnc2-c2cc(F)cc(NC(=O)c3ccc(C4CC4)cc3F)c2C)C1` [Example 37, (R)—N-(3-(5-((1-Acryloylpiperidin-3-yl)methoxy)-6-aminopyrimidin-4-yl)-5-fluoro-2-methylphenyl)-4-cyclopropyl-2-fluorobenzamide], for which the IC50 in assay [1] was 32 nM; in assay [2], 968 nM.

The IC50 is the concentration that inhibits the measured activity by half.

Source of the values: US9512084B2, “Amino pyrimidine derivatives” (Novartis AG, priority 2013, dated 2016).
